Laboratory results: patent publication US10864245B2, “Activation and expansion of NKG2C+ NK cells” (Deutsches Rheuma-Forschungszentrum Berlin, priority 2018, dated 2020)

Columns and labels:
adaptive NKG2C+ NK cells = assay: Stimulation of purified NK cells with peptide-pulsed RMA-S/HLA-E (effector functions); assay type: cell-based, human; conditions: RMA-S/HLA-E pulsed with 300 μM peptide; 6 h; NK cells from healthy HCMV+ individuals
Procedure: HLA-E surface stabilization was induced as described previously^30. In brief, 300 μM synthetic peptides (Peptides&Elephants) were added to target cells cultured at a density of 2×10^6 cells/ml in serum-free Opti-MEM (ThermoFisher) and incubated for 16 h at 37° C. Peptide-pulsed cells were either stained for FACS analysis of HLA-E surface expression or washed with complete media and used in co-cultures. For pulse-chase experiments, cells were pulsed as above, washed twice, and resuspended in Opti-MEM without peptide. HLA-E surface expression was monitored by FACS analysis at indicated time points.
CD56^+ MACS-enriched cells were stained with viability dye, CD3, and CD56, FACS-sorted for viable CD3^−CD56^+ NK cells, and rested overnight in complete medium. Purified NK cells were stimulated by co-culture with peptide-pulsed (300 μM) irradiated (30 Gy) target cells at a 2:1 NK:target ratio for 6 h in the presence of 300 μM synthetic peptides.
For blocking experiments, rested FACS-sorted viable CD3^− CD56^dim NKG2A^− NKG2C+ NK cells were treated with 20 μg/ml IgG1 isotype control or anti-CD94 antibody (both RnD Systems) for 15 min prior to start of the co-culture.

NKG2C+ NK cells = assay: In vitro culture of CD56dim NK cells from HCMV− donors with peptide-pulsed targets and IL-15 (proliferation, accumulation); assay type: cell-based, human; conditions: RMA-S/HLA-E/LFA-3, IL-15, IL-12/18 during initial 20 h, 14 days
Procedure: CD56^+ MACS-enriched cells from HCMV^− donors were stained with viability dye, CD3, and CD56, FACS-sorted for viable CD3^− CD56^dim NK cells, and rested overnight in complete medium. Purified CD56^dim NK cells were labeled with 2 μM CellTrace violet (Thermo Fisher) according to the manufacturer's instructions. 5×10^5 labeled NK cells were cultured with 1×10^5 peptide-pulsed […] irradiated (30 Gy) target cells in complete medium containing 10 ng/ml IL-15 (Miltenyi Biotec) in U-bottom 96-well plates (Greiner Bio-One) for the indicated times. Complete medium containing IL-15 was replaced every third to fourth day. On days 4, 7, and 11 of culture, 1×10^5 fresh peptide-pulsed irradiated target cells were added to the cultures.
Where indicated, 10 ng/ml IL-12 (Miltenyi Biotec) and 100 ng/ml IL-18 (MBL) were added at the start of co-cultures. After 20 h of culture, the cells were washed 3 times and resuspended in complete medium containing 10 ng/ml IL-15. Control wells without IL-12/18 were treated equally. To determine NKG2C+ NK cell numbers per μl of culture medium, CountBright Absolute Counting Beads (ThermoFisher) were used according to the manufacturer's instructions.
Proliferation and replication indices^60 of NKG2C+ cells were calculated using the proliferation analysis platform included in FlowJo v9.9 (FlowJo LLC) and normalized to those of NKG2C^− cells in the same condition.

VMAPRTLVL
TNF, IFN-γ, CD107a, and CCL3 expression by adaptive NKG2C+ NK cells (adaptive NKG2C+ NK cells): differentially triggered | NKG2C+ NK-cell absolute counts and frequencies (NKG2C+ NK cells): increase of NKG2C+ NK-cell absolute counts as well as frequencies
